Legend:
SK-MEL-2 = assay: Cytotoxicity test to cancer cell lines (SRB method), SK-MEL-2; format: cell-based; conditions: Homo sapiens, SK-MEL-2, 48 h, read-out: Cytotoxicity ED50 SK-MEL-2
A549 = assay: Cytotoxicity test to cancer cell lines (SRB method), A549; conditions: Homo sapiens, A549, 48 h, read-out: Cytotoxicity ED50 A549
Protocol: (§1) Cytotoxicity to A549 (Korea Research Institute of Chemical Technology), SK-OV-3 (Korea Research Institute of Chemical Technology), SK-MEL-2 (Korea Research Institute of Chemical Technology), HCT-15 (Korea Research Institute of Chemical Technology) and MCF7 (Korean Cell Line Bank, Seoul National University School of medicine) cells was measured by Sulforhodamin-B (SRB) method (1989, National Cancer Institute (NCI)) which was developed for the measurement of in vitro anticancer activity of a drug. Cells were separated using 0.25% trypsin-EDTA solution, leading to the preparation of a cell suspension by 5×10^318 2×10^4 cells/well. Then, the suspension was distributed into a 96 well plate by 100 μl/well, which was cultured in a 37° C., 5% CO2 incubator for 24 hours. Compounds prepared in examples of the present invention were used as a sample. Precisely, the compound was dissolved in dimethylsulfoxide and diluted with RPMI 1640 medium before being used as a sample. The final concentration of the sample used varied ranging 1 μM˜0.00001 μM. The medium was removed from the 96 well plate and then diluted sample solution was added by 100 μl/well, followed by further culture in a 37° C., 5% CO2 incubator for 48 hours. Tz (time zero) plate was collected from the point of adding the sample. Upon completing the culture, the medium was removed from each well along with Tz plate, then 10% trichloroacetic acid (TCA) was added by 100 μl/well. The plate was left at 4° C. for 1 hour to let cells be fixed on the floor of the plate. After cells were fixed completely, the plate was washed with water 5-6 times to remove the remaining trichloroacetic acid solution completely and moisture was completely dried at room temperature. 0.4% Sulforhodamine-B was dissolved in 1% acetic acid solution to prepare a staining solution. Cells were stained for 30 minutes with a dye added by 100 μl to each well of the completely dried plate. Then, the plate was washed with 1% acetic acid solution 5-6 times to remove sulforhodamine-B remained uncombined with cells. Then, the plate was dried at room temperature. 10 mM Tris solution was added by 100 μ/well thereto to dissolve the dye, and optical density (OD) was measured at 520 nm with a micro plate reader.
(§2) ED50 (concentration that inhibits cancer cell growth 50%, 5.0% effective dose, nM/ml) of the sample to cancer cell was calculated as follows. OD value at the point of beginning the culture with the sample was determined as Tz (time zero) value. OD value of a well to be cultured without the sample was determined as a control value (C). OD value of a well pretreated with the sample was determined as experimental value (T). After calculating Tz, C and T, cytotoxicity of the sample was measured by the below <Mathematical Formula 1>. T≦Tz, (T−Tz)/(C−Tz)×100 T>Tz, (T−Tz)/Tz×10,0 <Mathematical Formula 1>
(§3) ED50, the concentration that can inhibit cancer cell growth by 50%, was calculated by using a regression analysis of lotus program based on the degree of cytotoxicity obtained by the <Mathematical Formula 1>.

SK-OV-3 = assay: Cytotoxicity test to cancer cell lines (SRB method), SK-OV-3; format: cell-based; conditions: Homo sapiens, SK-OV-3, 48 h, read-out: Cytotoxicity ED50 SK-OV-3
HCT-15 = assay: Cytotoxicity test to cancer cell lines (SRB method), HCT-15; conditions: Homo sapiens, HCT-15, 48 h, read-out: Cytotoxicity ED50 HCT15
Protocol: as §1, §2, §3

MCF7 = assay: Cytotoxicity test to cancer cell lines (SRB method), MCF7; conditions: read-out: Cytotoxicity ED50 MCF-7, MCF-7, 48 hours
Protocol: as §1, §2, §3

Compound	EC50 (SK-MEL-2)	EC50 (A549)	EC50 (SK-OV-3)	EC50 (HCT-15)	EC50 (MCF7)
COc1cc2c(c(OC)c1OC)-c1ccc(SC)c(=O)cc1[C@@H](NC(=O)c1cccc(CO[N+](=O)[O-])c1F)CC2 [Example 10, 2-fluoro-3-nitrooxymethyl-N-[(7S)-1,2,3-trimethoxy-10-methylsulfanyl-9-oxo-5,6,7,9-tetrahydro-benzo[a]heptalen-7-yl]-benzamide]	0.12 nM	0.28 nM	0.23 nM	0.39 nM	0.09 nM
COc1c(OC2CCCC2)cc2c(c1OC)-c1ccc(SC)c(=O)cc1[C@@H](NC(=O)c1cccc(CO[N+](=O)[O-])c1F)CC2 [Example 11, N-[(7S)-3-cyclopentyloxy-1,2-dimethoxy-10-methylsulfanyl-9-oxo-5,6,7,9-tetrahydro-benzo[a]heptalen-7-yl]-2-fluoro-3-nitrooxymethyl-benzamide]	> 50 nM	> 50 nM	> 50 nM	> 50 nM	39 nM
CCOc1cc2c(c(OC)c1OC)-c1ccc(SC)c(=O)cc1[C@@H](NC(=O)c1cc(F)cc(CO[N+](=O)[O-])c1)CC2 [Example 13, N-[(7S)-3-ethoxy-1,2-dimethoxy-10-methylsulfanyl-9-oxo-5,6,7,9-tetrahydro-benzo[a]heptalen-7-yl)-3-fluoro-5-nitrooxymethyl-benzamide]	0.04 nM	0.13 nM	0.18 nM	0.11 nM	0.02 nM
COc1c(OC(C)C)cc2c(c1OC)-c1ccc(SC)c(=O)cc1[C@@H](NC(=O)c1cc(F)cc(CO[N+](=O)[O-])c1)CC2 [Example 14, 3-fluoro-N-[(7S)-3-isopropoxy-1,2-dimethoxy-10-methylsulfanyl-9-oxo-5,6,7,9-tetrahydro-benzo[a]heptalen-7-yl]-5-nitrooxymethyl-benzamide]	32.8 nM	28.2 nM	30.6 nM	9.9 nM	11.2 nM
COc1c(OC2CCCC2)cc2c(c1OC)-c1ccc(SC)c(=O)cc1[C@@H](NC(=O)c1cc(F)cc(CO[N+](=O)[O-])c1)CC2 [Example 15, N-[(7S)-3-cyclopentyloxy-1,2-dimethoxy-10-methylsulfanyl-9-oxo-5,6,7,9-tetrahydro-benzo[a]heptalen-7-yl]-3-fluoro-5-nitrooxymethyl-benzamide]	22.5 nM	30.2 nM	> 50 nM	23.4 nM	18.8 nM
COc1cc2c(c(OC)c1OC)-c1ccc(SC)c(=O)cc1[C@@H](NC(=O)c1cc(CO[N+](=O)[O-])ccc1F)CC2 [Example 17, 2-fluoro-5-nitrooxymethyl-N-[(7S)-1,2,3-trimethoxy-10-methylsulfanyl-9-oxo-5,6,7,9-tetrahydro-benzo[a]heptalen-7-yl]-benzamide]	0.17 nM	0.21 nM	0.19 nM	0.19 nM	0.08 nM
COc1cc2c(c(OC)c1OC)-c1ccc(SC)c(=O)cc1[C@@H](NC(=O)c1cc(CO[N+](=O)[O-])cc(CO[N+](=O)[O-])c1)CC2 [Example 19, 3,5-bis-nitrooxymethyl-N-[(7S)-1,2,3-trimethoxy-10-methylsulfanyl-9-oxo-5,6,7,9-tetrahydro-benzo[a]heptalen-7-yl]-benzamide]	31 nM	23.5 nM	34.8 nM	10.1 nM	8.2 nM
COc1cc2c(c(OC)c1OC)-c1ccc(SC)c(=O)cc1[C@@H](NC(=O)c1ccc(CO[N+](=O)[O-])cc1O)CC2 [Example 20, 2-hydroxy-4-nitrooxymethyl-N-[(7S)-1,2,3-trimethoxy-10-methylsulfanyl-9-oxo-5,6,7,9-tetrahydro-benzo[a]heptalen-7-yl]-benzamide]	2.47 nM	3.93 nM	1.83 nM	1.03 nM	1.15 nM
